Tests used:
mouse TGR5 receptor = target: T1, mouse TGR5 receptor (Mus musculus, UniProt Q80SS6); test: Mouse TGR5 HTRF cAMP production assay (HEK293-EBNA cells, Cisbio cAMP HiRange kit); assay type: cell-based; details: HEK293-EBNA cells overexpressing mouse TGR5, HTRF cAMP assay
T1 construct: host or cells: HEK293-EBNA (293 c18, ATCC CRL10852)
T1 sequence (Q80SS6 1-329): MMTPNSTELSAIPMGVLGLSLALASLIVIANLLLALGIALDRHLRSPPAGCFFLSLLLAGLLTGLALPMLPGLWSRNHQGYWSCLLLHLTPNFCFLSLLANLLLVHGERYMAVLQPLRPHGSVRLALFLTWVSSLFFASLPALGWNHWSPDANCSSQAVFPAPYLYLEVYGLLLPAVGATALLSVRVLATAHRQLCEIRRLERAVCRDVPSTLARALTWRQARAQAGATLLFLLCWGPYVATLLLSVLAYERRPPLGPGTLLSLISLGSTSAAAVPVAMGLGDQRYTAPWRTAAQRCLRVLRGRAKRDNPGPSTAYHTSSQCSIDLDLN
Procedure, shortened: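 HEK293-EBNA cells stably expressing mouse TGR5 (episomal vector) were suspended in serum-free DMEM with 500 μM IBMX and exposed to 12-point half-log compound dilutions for 1 h at room temperature. cAMP was detected by HTRF (d2-cAMP/anti-cAMP cryptate, 1 h, room temperature), giving EC50 from duplicates.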

human TGR5 receptor = target: T2, human TGR5 receptor (Homo sapiens, UniProt Q8TDU6); test: Human TGR5 cAMP production assay (hTGR5-CHO cells, DiscoveRx cAMP XS+ kit); assay type: cell-based; details: luminescent cAMP assay, read-out: Human TGR5 Lum. cAMP Activity (EC50)
T2 construct: host or cells: CHO-K1 (hTGR5-CHO)
T2 sequence (Q8TDU6 1-330): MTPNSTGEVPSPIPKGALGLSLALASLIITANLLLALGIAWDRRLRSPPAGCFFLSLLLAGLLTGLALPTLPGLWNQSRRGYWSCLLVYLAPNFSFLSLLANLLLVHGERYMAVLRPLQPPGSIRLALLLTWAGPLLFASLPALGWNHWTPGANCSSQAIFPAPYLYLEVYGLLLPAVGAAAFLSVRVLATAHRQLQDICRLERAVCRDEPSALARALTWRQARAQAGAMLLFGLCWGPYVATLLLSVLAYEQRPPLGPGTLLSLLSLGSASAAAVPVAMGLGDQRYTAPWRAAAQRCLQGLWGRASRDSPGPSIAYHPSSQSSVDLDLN
Procedure, shortened: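 CHO-K1 cells stably expressing hTGR5, in PBS with IBMX and cAMP antibody, treated with half-log compound dilutions for 1 h at room temperature. cAMP measured by enzyme-fragment complementation luminescence after overnight detection; EC50 values reported.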

| EC50 (mouse TGR5 receptor) | EC50 (human TGR5 receptor) | SMILES |
| --- | --- | --- |
| < 0.1 µM | < 0.1 µM | O=C(O)CNS(=O)(=O)CCNC(=O)CCCC1CCN(c2cc(N3CCC[C@H]3C(=O)NCCc3ccc(C(F)(F)F)cc3)nc(C(F)(F)F)n2)CC1 [Compound 114, (S)-2-(2-(4-(1-(2-(trifluoromethyl)-6-(2-((4-(trifluoromethyl)phenethyl)-carbamoyl)-pyrrolidin-1-yl)pyrimidin-4-yl)piperidin-4-yl)butanamido)ethyl-sulfonamido)acetic acid] |
| < 0.1 µM | < 0.1 µM | N#Cc1ccc(CCNC(=O)[C@@H]2CCN2c2cc(N3CCC(CCNc4c(NCCS(=O)(=O)O)c(=O)c4=O)CC3)nc(C(F)(F)F)n2)cc1 [Compound 297, (S)-2-((2-((2-(1-(6-(2-((4-cyanophenethyl)carbamoyl)azetidin-1-yl)-2-(trifluoromethyl)pyrimidin-4-yl)piperidin-4-yl)ethyl)amino)-3,4-dioxocyclobut-1-en-1-yl)amino)ethanesulfonic acid] |
| < 0.1 µM | < 0.1 µM | N#Cc1ccc(CCNC(=O)[C@@H]2CCCN2c2cc(N3CCC(CCNC(=O)NCCC(=O)NCCS(=O)(=O)O)CC3)nc(C(F)(F)F)n2)cc1 [Compound 113, (S)-2-(3-(3-(2-(1-(6-(2-((4-cyanophenethyl)carbamoyl)pyrrolidin-1-yl)-2-(trifluromethyl)pyrimidin-4-yl)piperidin-4-yl)ethyl)ureido)-propanamido)-ethanesulfonic acid] |
| < 0.1 µM | < 0.1 µM | N#Cc1ccc(CCNC(=O)[C@@H]2CCN2c2cc(N3CCC(CCNC(=O)NCCS(N)(=O)=O)CC3)nc(C(F)(F)F)n2)cc1 [Compound 269, (S)—N-(4-cyanophenethyl)-1-(6-(4-(2-(3-(2-sulfamoylethyl)ureido)ethyl)piperidin-1-yl)-2-(trifluoromethyl)pyrimidin-4-yl)azetidine-2-carboxamide] |
| < 0.1 µM | < 0.1 µM | N#Cc1ccc(CCNC(=O)[C@@H]2CCCN2c2cc(N3CCC(CCCC(=O)NCC(=O)O)CC3)nc(C(F)(F)F)n2)cc1 [Compound 103, (S)-2-(4-(1-(6-(2-((4-cyanophenethyl)carbamoyl)pyrrolidin-1-yl)-2-(trifluoromethyl)pyrimidin-4-yl)piperidin-4-yl)butanamido)acetic acid] |
| < 0.1 µM | < 0.1 µM | N[C@@H](CS(=O)(=O)O)C(=O)NCCC1CCN(c2cc(N3CC[C@H]3C(=O)NCCc3ccc(C(F)(F)F)cc3)nc(C(F)(F)F)n2)CC1 [Compound 278, (R)-2-amino-3-oxo-3-((2-(1-(2-(trifluoromethyl)-6-((S)-2-((4-(trifluoromethyl)-phenethyl)carbamoyl)azetidin-1-yl)pyrimidin-4-yl)piperidin-4-yl)ethyl)amino)-propane-1-sulfonic acid] |
| < 0.1 µM | < 0.1 µM | N#Cc1ccc(CCNC(=O)[C@@H]2CCN2c2cc(N3CCC(CCNC(=O)NCS(=O)(=O)O)CC3)nc(C(F)(F)F)n2)cc1 [Compound 270, (S)-(3-(2-(1-(6-(2-((4-cyanophenethyl)carbamoyl)azetidin-1-yl)-2-(trifluoromethyl)pyrimidin-4-yl)piperidin-4-yl)ethyl)ureido)-methanesulfonic acid] |
| < 0.1 µM | < 0.1 µM | N#Cc1ccc(CCNC(=O)[C@@H]2CCN2c2cc(N3CCC(CCCC(=O)NCCNC(=N)N)CC3)nc(C(F)(F)F)n2)cc1 [Compound 282, (S)—N-(4-cyanophenethyl)-1-(6-(4-(4-((2-guanidinoethyl)amino)-4-oxobutyl)piperidin-1-yl)-2-(trifluoromethyl)pyrimidin-4-yl)azetidine-2-carboxamide] |
| < 0.1 µM | < 0.1 µM | N#Cc1ccc(CCNC(=O)[C@@H]2CCCN2c2cc(N3CCC(CCNc4c(NCCC(=O)O)c(=O)c4=O)CC3)nc(C(F)(F)F)n2)cc1 [Compound 368, (S)-3-((2-((2-(1-(6-(2-((4-cyanophenethyl)carbamoyl)pyrrolidin-1-yl)-2-(trifluoromethyl)pyrimidin-4-yl)piperidin-4-yl)ethyl)amino)-3,4-dioxocyclobut-1-en-1-yl)amino)propanoic acid] |

Continued, compound first:

| SMILES | EC50 (mouse TGR5 receptor) | EC50 (human TGR5 receptor) |
| --- | --- | --- |
| COc1cc(C(F)(F)F)ccc1CCNC(=O)[C@@H]1CCN1c1cc(N2CCC(CCC(=O)NCCS(=O)(=O)O)CC2)nc(C(F)(F)F)n1 [Compound 259] | < 0.1 µM | < 0.1 µM |
| N=C(N)N[C@@H](CCC(=O)NCCCC1CCN(c2cc(N3CCC[C@H]3C(=O)NCCc3ccc(C(F)(F)F)cc3)nc(C(F)(F)F)n2)CC1)C(=O)O [Compound 133, (S)-2-guanidino-5-oxo-5-((3-(1-(2-(trifluoromethyl)-6-((S)-2-((4-(trifluoromethyl)phenethyl)carbamoyl)pyrrolidin-1-yl)pyrimidin-4-yl)piperidin-4-yl)propyl)amino)pentanoic acid] | < 0.1 µM | < 0.1 µM |
| N#Cc1ccc(CCNC(=O)[C@@H]2CCCN2c2cc(N3CCC(CCCC(=O)NCCNc4ncc(C(=O)NCCS(=O)(=O)O)cn4)CC3)nc(C(F)(F)F)n2)cc1 [Compound 112, (S)-2-(2-((2-(4-(1-(6-(2-((4-cyanophenethyl)carbamoyl)pyrrolidin-1-yl)-2-(trifluoromethyl)pyrimidin-4-yl)piperidin-4-yl)butanamido)ethyl)amino)-pyrimidine-5-carboxamido)ethanesulfonic acid] | < 0.1 µM | < 0.1 µM |
| N#Cc1ccc(CCNC(=O)[C@@H]2CCN2c2cc(N3CCC(CCCC(=O)NCS(=O)(=O)O)CC3)nc(C(F)(F)F)n2)cc1 [Compound 250, (S)-(4-(1-(6-(2-((4-cyanophenethyl)carbamoyl)azetidin-1-yl)-2-(trifluoromethyl)pyrimidin-4-yl)piperidin-4-yl)butanamido)methanesulfonic acid] | < 0.1 µM | < 0.1 µM |
| N#Cc1ccc(CCNC(=O)[C@@H]2CCCN2c2cc(N3CCC(CCCC(=O)NCCC(=O)NC(CO)(CO)CO)CC3)nc(C(F)(F)F)n2)cc1 [Compound 109, (S)—N-(4-cyanophenethyl)-1-(6-(4-(4-((3-((1,3-dihydroxy-2-(hydroxymethyl)propan-2-yl)amino)-3-oxopropyl)amino)-4-oxobutyl)piperidin-1-yl)-2-(trifluoromethyl)-pyrimidin-4-yl)pyrrolidine-2-carboxamide] | < 0.1 µM | < 0.1 µM |
| N#Cc1ccc(CCNC(=O)[C@@H]2CCN2c2cc(N3CCC(CCCC(=O)NC[C@@H](O)CO)CC3)nc(C(F)(F)F)n2)cc1 [Compound 261, (S)-N-(4-cyanophenethyl)-1-(6-(4-(4-(((R)-2,3-dihydroxypropyl)amino)-4-oxobutyl)piperidin-1-yl)-2-(trifluoromethyl)pyrimidin-4-yl)azetidine-2-carboxamide] | < 0.1 µM | < 0.1 µM |
| N#Cc1ccc(CCNC(=O)[C@@H]2CCN2c2cc(N3CCC(CCCC(=O)NCCS(=O)(=O)O)CC3)nc(C(F)(F)F)n2)cc1 [Compound 249, (S)-2-(4-(1-(6-(2-((4-cyanophenethyl)carbamoyl)azetidin-1-yl)-2-(trifluoromethyl)pyrimidin-4-yl)piperidin-4-yl)butanamido)ethanesulfonic acid] | < 0.1 µM | < 0.1 µM |
| N#Cc1ccc(CCNC(=O)[C@@H]2CCCN2c2cc(N3CCC(CCCC(=O)NCCS(N)(=O)=O)CC3)nc(C(F)(F)F)n2)cc1 [Compound 62, (S)-N-(4-cyanophenethyl)-1-(6-(4-(4-oxo-4-((2-sulfamoylethyl)amino)butyl)piperidin-1-yl)-2-(trifluoromethyl)pyrimidin-4-yl)pyrrolidine-2-carboxamide] | < 0.1 µM | < 0.1 µM |
| N#Cc1ccc(CCNC(=O)[C@@H]2CCCN2c2cc(N3CCC(CCCC(=O)NCS(=O)(=O)O)CC3)cc(C(F)(F)F)n2)cc1 [Compound 198, (S)-(4-(1-(2-(2-((4-cyanophenethyl)carbamoyl)pyrrolidin-1-yl)-6-(trifluoromethyl)pyridin-4-yl)piperidin-4-yl)butanamido)methanesulfonic acid] | < 0.1 µM | < 0.1 µM |
| N#Cc1ccc(CCNC(=O)[C@@H]2CCN2c2cc(N3CCC(CCNC(=O)NCCOCCNC(=O)NCCS(=O)(=O)O)CC3)nc(C(F)(F)F)n2)cc1 [Compound 358, (S)-15-(1-(6-(2-((4-cyanophenethyl)carbamoyl)azetidin-1-yl)-2-(trifluoromethyl)pyrimidin-4-yl)piperidin-4-yl)-4,12-dioxo-8-oxa-3,5,11,13-tetraazapentadecane-1-sulfonic acid] | < 0.1 µM | < 0.1 µM |

— patent publication US10654834B2 (Venenum Biodesign, LLC, priority 2016, dated 2020)
